Test results from ChEMBL document CHEMBL5576145, “Domoic Acid as a Lead for the Discovery of the First Selective Ligand for Kainate Receptor Subtype 5 (GluK5)” (J Med Chem, 2024).
The source made the active and inactive calls. The calls are words filed in the database; no cut-off is given here.

Key:
[1] = target: T1, Glutamate receptor ionotropic, kainate 2 (Homo sapiens, UniProt Q13002); experiment: Displacement of [3H]-kainic acid from GluR6 (unknown origin) expressed in Sf9 cells membrane; format: cell membranes, Cell membrane
[2] = test system: Hippocampus; experiment: Reduction in CA1 spike amplitude in Wistar rat hippocampal slices after 20 mins of toxin administration; format: functional, tissue-based
[3] = target: T2, Glutamate receptor 4 (Rattus norvegicus, UniProt P19493); experiment: Displacement of [3H]-AMPA from AMPA in rat synaptic membrane; format: subcellular, Synaptosome
[4] = Displacement of [3H]-Kainic acid from KA in rat synaptic membrane; format: subcellular, Synaptosome
[5] = Binding affinity to KA receptor in rat synaptosomes; format: subcellular, Synaptosome
[6] = target: T2, Glutamate receptor 4; experiment: Binding affinity to AMPA receptor in rat synaptosomes; format: subcellular, Synaptosome
[7] = target: Glutamate receptor ionotropic, kainate 1 (Homo sapiens, UniProt P39086); experiment: Displacement of [3H](2S, 4R)-4-MeGlu (SYM-2081) from GluK1 (unknown origin)
[8] = target: T1, Glutamate receptor ionotropic, kainate 2; experiment: Displacement of [3H](2S, 4R)-4-MeGlu (SYM-2081) from GluK2 (unknown origin)
[9] = target: Glutamate receptor 4 (Rattus norvegicus) (UniProt P19493); experiment: Displacement of [3H]-AMPA from AMPA in rat cortical synaptosomes assessed as remaining activity at 10 uM incubated for 30 mins by TopCount microplate scintillation counting method relative to control; format: subcellular; details: Cortex, Synaptosome
[10] = Displacement of [3H]-KA from KA in rat cortical synaptosomes incubated for 60 mins by TopCount microplate scintillation counting method; format: subcellular, Cortex, Synaptosome
[11] = target: Glutamate NMDA receptor (Rattus norvegicus) (UniProt P35439+Q00959+Q00960+Q00961+Q62645+Q8VHN2+Q9R1M7); experiment: Displacement of [3H]CGP39653 from NMDA receptor in rat cortical synaptosomes assessed as remaining activity at 10 uM incubated for 60 mins by Topcount microplate scintillation counting method relative to control; format: subcellular; details: Cortex, Synaptosome
[12] = target: Glutamate receptor ionotropic, kainate 2 (Rattus norvegicus, UniProt P42260); experiment: Displacement of [3H]-KA from rat GluK2
[13] = target: Glutamate receptor ionotropic, kainate 3 (Rattus norvegicus, UniProt P42264); experiment: Displacement of [3H]-KA from rat GluK3
[14] = target: Glutamate receptor ionotropic, kainate 1 (Rattus norvegicus) (UniProt P22756); experiment: Displacement of [3H]-NF608 from rat GluK1 assessed as percent of radioligand binding at 10 uM relative to control
[15] = target: T3, Glutamate receptor ionotropic, kainate 5 (Mus musculus, UniProt Q61626); experiment: Displacement of [3H]-kainate from mouse GluK5 expressed in Sf9 cell membrane incubated for 2 hrs by scintillation counting method; format: cell membranes
T3 sequence (Q61626 whole entry): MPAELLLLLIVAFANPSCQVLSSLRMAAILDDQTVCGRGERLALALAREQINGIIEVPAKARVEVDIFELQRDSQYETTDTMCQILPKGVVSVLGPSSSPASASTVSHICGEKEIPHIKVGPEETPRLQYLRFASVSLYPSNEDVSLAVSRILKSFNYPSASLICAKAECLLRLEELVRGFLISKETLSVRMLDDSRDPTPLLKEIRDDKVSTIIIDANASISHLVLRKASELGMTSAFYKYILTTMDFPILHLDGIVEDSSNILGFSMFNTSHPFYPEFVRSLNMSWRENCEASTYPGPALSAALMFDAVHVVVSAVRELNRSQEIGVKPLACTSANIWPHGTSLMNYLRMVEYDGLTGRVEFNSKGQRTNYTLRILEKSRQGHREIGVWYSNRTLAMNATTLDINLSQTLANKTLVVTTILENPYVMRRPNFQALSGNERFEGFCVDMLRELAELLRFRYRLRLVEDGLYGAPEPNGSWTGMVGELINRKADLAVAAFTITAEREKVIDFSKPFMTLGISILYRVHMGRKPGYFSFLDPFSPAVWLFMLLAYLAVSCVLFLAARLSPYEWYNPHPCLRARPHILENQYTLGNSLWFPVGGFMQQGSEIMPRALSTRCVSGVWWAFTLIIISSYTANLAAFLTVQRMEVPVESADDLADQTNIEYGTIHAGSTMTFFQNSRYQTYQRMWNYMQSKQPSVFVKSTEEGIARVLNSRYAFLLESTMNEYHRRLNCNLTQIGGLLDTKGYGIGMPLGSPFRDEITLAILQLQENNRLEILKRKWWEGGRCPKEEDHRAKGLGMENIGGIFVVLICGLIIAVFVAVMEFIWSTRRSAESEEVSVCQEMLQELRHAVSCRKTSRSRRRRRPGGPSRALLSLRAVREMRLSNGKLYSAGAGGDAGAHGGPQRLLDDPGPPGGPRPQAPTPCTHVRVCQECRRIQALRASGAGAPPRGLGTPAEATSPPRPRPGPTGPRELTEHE

[16] = target: T4, Ionotropic glutamate receptor kainate 2/5 (Homo sapiens) (UniProt Q16478+Q13002); experiment: Agonist activity at GluK2/K5 (unknown origin) expressed in HEK293T cells at 10 uM by electrophysiology; format: cell-based
[17] = target: T4, Ionotropic glutamate receptor kainate 2/5 (Homo sapiens); experiment: Antagonist activity at GluK2/K5 (unknown origin) expressed in HEK293T cells preincubated with compound followed by L-Glu stimulation by electrophysiology; format: cell-based
[18] = test system: Neuron; experiment: Agonist activity at GluK2/K5 in mouse hippocampal neurons assessed as change in holding current at 10 uM by electrophysiology; format: cell-based; details: filed as agonist
[19] = test system: Neuron; experiment: Agonist activity at GluK2/K5 in mouse hippocampal neurons assessed as change in holding current at 100 uM by electrophysiology; format: cell-based; details: filed as agonist

T2 sequence (P19493 whole entry): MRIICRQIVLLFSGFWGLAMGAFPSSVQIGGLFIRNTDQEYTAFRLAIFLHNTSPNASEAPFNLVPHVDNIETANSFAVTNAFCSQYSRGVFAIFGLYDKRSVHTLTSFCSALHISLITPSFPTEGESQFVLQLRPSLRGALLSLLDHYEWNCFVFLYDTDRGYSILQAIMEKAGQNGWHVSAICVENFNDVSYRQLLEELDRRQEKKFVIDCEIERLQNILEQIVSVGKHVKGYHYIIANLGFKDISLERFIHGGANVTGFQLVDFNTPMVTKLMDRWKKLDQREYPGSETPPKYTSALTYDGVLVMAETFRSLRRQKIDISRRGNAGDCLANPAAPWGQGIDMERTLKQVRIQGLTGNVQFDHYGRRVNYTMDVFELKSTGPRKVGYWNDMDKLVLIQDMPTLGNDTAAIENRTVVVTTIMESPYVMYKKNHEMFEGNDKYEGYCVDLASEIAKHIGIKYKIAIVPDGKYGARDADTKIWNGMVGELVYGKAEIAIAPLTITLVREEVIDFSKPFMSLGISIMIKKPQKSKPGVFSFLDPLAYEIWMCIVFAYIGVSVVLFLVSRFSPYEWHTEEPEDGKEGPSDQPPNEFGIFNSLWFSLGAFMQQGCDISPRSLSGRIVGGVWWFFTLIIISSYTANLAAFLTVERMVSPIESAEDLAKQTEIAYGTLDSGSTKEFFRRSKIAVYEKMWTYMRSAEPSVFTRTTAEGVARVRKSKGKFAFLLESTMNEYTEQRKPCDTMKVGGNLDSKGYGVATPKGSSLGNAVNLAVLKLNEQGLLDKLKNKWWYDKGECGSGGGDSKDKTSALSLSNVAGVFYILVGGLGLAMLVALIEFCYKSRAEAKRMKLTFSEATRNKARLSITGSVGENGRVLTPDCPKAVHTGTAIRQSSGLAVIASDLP
T1 sequence (Q13002 whole entry): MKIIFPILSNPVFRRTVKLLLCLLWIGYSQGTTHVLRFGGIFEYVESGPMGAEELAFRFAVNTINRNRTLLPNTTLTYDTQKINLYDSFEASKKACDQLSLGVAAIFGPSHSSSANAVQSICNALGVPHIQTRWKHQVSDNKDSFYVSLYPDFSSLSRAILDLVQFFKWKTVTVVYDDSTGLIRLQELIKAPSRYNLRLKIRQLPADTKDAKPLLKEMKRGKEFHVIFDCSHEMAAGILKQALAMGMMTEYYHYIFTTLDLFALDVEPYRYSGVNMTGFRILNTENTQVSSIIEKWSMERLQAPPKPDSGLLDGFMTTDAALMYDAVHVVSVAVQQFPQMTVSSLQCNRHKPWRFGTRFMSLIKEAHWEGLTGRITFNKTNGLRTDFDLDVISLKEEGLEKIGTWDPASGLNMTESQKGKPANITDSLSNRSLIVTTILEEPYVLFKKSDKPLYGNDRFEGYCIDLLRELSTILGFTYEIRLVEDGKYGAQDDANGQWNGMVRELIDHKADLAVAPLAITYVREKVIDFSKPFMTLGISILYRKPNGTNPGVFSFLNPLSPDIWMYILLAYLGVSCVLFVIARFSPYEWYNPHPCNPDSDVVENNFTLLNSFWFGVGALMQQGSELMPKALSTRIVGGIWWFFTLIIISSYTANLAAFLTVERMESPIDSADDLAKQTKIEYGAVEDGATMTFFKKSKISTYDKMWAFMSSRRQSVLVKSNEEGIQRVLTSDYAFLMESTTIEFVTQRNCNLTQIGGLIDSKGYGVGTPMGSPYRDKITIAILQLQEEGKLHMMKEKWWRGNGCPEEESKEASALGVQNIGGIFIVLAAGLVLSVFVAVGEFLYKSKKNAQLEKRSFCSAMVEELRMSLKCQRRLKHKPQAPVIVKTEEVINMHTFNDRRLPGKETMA
Chain of Glutamate receptor 4 (Rattus norvegicus) (P19493 whole entry): as the sequence (P19493 whole entry) above
Chain of Glutamate receptor ionotropic, kainate 1 (P39086 whole entry): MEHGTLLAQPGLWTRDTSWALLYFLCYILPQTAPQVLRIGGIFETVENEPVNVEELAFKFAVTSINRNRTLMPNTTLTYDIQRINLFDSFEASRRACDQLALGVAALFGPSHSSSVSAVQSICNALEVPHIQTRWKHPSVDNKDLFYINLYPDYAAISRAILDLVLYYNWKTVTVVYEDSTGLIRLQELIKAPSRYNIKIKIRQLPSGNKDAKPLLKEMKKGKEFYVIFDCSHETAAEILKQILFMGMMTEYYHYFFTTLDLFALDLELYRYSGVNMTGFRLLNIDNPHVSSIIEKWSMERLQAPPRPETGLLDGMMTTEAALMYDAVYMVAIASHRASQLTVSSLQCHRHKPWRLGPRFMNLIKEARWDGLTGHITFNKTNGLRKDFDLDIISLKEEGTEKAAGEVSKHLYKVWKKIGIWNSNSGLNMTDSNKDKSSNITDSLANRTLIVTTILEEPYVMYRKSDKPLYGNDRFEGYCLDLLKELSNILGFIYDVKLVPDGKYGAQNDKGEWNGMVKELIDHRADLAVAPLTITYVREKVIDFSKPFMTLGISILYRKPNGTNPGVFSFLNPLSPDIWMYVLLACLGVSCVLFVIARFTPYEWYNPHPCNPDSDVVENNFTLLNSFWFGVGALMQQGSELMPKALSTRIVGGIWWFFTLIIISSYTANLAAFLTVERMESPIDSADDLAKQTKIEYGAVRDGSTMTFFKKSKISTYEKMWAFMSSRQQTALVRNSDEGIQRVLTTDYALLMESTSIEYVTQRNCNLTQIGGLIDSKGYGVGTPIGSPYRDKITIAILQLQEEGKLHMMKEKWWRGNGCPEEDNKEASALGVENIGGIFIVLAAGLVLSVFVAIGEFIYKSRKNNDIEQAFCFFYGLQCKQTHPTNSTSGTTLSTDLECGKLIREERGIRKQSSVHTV
Chain of Glutamate receptor ionotropic, kainate 3 (P42264 whole entry): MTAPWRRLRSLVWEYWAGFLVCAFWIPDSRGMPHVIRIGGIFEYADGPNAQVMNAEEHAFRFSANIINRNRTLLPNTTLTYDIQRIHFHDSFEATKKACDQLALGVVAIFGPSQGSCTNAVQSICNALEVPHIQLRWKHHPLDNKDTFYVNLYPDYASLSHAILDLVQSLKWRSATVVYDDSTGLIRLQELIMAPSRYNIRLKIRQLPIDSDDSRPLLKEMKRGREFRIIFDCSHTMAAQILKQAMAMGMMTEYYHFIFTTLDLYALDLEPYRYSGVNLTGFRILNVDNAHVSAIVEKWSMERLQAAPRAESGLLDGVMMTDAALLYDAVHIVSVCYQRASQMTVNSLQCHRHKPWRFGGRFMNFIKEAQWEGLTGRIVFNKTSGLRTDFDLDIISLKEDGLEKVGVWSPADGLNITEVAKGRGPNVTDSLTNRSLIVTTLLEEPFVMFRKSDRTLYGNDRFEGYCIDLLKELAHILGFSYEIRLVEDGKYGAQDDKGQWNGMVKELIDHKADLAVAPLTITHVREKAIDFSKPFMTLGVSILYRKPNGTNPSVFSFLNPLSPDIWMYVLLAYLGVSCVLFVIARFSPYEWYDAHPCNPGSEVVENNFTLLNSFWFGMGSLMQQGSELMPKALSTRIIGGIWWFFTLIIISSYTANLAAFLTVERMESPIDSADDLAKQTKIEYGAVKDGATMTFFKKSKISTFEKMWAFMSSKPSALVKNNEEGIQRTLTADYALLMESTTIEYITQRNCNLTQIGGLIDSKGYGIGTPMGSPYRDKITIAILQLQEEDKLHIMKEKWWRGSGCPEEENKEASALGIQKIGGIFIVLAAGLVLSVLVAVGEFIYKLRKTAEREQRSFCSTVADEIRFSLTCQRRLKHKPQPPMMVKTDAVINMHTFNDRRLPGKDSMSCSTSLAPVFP
Chain of Glutamate receptor ionotropic, kainate 2 (Rattus norvegicus, UniProt P42260) (P42260 whole entry): as the sequence (Q13002 whole entry) above, with F5S, I7V, P11L, R14S, T16S, V17I, L19V, A494V counted along it
Chain of Glutamate receptor ionotropic, kainate 1 (Rattus norvegicus) (P22756 whole entry): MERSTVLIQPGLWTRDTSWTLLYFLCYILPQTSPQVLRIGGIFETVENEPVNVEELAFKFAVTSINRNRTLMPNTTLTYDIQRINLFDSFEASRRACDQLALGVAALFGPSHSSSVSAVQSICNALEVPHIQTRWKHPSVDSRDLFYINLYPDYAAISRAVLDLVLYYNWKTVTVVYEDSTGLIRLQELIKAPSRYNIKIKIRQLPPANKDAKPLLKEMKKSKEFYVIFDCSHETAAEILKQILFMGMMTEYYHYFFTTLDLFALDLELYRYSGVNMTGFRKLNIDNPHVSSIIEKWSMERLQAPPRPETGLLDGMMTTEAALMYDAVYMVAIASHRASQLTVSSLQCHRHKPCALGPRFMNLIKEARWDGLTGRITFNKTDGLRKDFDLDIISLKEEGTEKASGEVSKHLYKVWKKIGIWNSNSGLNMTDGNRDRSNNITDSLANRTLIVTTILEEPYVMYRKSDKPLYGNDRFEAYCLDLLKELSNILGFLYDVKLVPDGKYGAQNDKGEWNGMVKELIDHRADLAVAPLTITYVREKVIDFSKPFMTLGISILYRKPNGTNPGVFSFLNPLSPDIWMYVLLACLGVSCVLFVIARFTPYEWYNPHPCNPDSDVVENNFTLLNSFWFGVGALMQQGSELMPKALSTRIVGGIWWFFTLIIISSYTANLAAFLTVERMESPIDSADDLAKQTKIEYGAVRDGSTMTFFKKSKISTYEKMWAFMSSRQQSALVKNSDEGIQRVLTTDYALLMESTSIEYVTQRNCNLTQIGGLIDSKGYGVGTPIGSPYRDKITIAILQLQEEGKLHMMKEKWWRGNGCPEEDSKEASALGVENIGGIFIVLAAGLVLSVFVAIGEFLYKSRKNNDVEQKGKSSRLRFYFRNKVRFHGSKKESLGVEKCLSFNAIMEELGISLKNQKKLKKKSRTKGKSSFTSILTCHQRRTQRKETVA

| Activity [9] | IC50 [10] | Activity [11] | Ki [12] | Ki [13] | Activity [14] | Ki [15] | Activity [16] | Activity [17] | SMILES | Ki [1] | EC50 [2] | IC50 [3] | IC50 [4] | IC50 [5] | IC50 [6] | Ki [7] | Ki [8] | Activity [18] | Activity [19] |
| --- | --- | --- | --- | --- | --- | --- | --- | --- | --- | --- | --- | --- | --- | --- | --- | --- | --- | --- | --- |
| – | – | – | – | – | – | – | – | – | C/C(=C/C/C=C(\C)C(=O)O)[C@H]1CN[C@H](C(=O)O)[C@H]1CC(=O)O | 130 nM | 887 nM | – | – | – | – | – | – | – | – |
| – | – | – | – | – | – | – | – | – | C/C(=C/C=C/[C@@H](C)C(=O)O)[C@H]1CN[C@H](C(=O)O)[C@H]1CC(=O)O [DOMOIC ACID] | – | 228 nM | 470 nM | 4 nM | 15 nM | 9000 nM | 1.11 nM | 6.04 nM | – | – |
| 90% | 4400 nM | 99% | 70000 nM | 17900 nM | 90% | 432 nM | inactive | inactive | O=C(O)C[C@@H]1[C@@H](C(=O)O)NC[C@@H]1n1nncc1-c1ccc2cc(O)ccc2c1 | – | – | – | – | – | – | – | – | 56 pA | 148 pA |
